Assay results: patent publication US20220331326A1, “PHARMACEUTICAL COMPOSITION, PHARMACEUTICAL DOSAGE FORM, PROCESS FOR THEIR PREPARATION, METHODS FOR TREATING AND USES THEREOF” (Boehringer Ingelheim International GmbH, priority 2009, published 2022)

Experiments:
[1] = compatibility with / degradation of linagliptin in the composition; format: physicochemical; settings: combined with a glucopyranosyl-substituted benzene derivative of the formula (I), in particular the compound (I.3)
Method: Preferably the excipients are chosen such that they are compatible with linagliptin, i.e. such that there is no or only marginal degradation of linagliptin in the pharmaceutical composition. The degradation can be tested in standard tests, for example after a 6 months storage at 40° C. and 75% relative humidity. In this context the term “marginal degradation” shall mean a chemical degradation of linagliptin of less than 5%, preferably less than 3%, even more preferably less than 2% by weight of linagliptin. The content and thus the degradation can be determined by well-known analytical methods, for example using HPLC or UV methods.

[2] = system: Zucker Diabetic Fatty (ZDF) rats; experiment: oral glucose tolerance test in ZDF rats; format: in vivo, rat; settings: male ZDF rats, single oral dose 30 min before 2 g/kg oral glucose; linagliptin 1 mg/kg, compound (I.3) 3 mg/kg, combination at the same doses; versus control
Method: According to a first example an oral glucose tolerance test is performed in overnight fasted 9-weeks old male Zucker Diabetic Fatty (ZDF) rats (ZDF/Crl-Lepr^fa). A pre-dose blood sample is obtained by tail bleed. Blood glucose is measured with a glucometer, and the animals are randomized for blood glucose (n=5/group). Subsequently, the groups receive a single oral administration of either vehicle alone (0.5% aqueous hydroxyethylcellulose containing 3 mM HCl and 0.015% Polysorbat 80) or vehicle containing either the SGLT2 inhibitor or the DPPIV inhibitor or the combination of the SGLT2 inhibitor plus the DPP IV inhibitor plus. The animals receive an oral glucose load (2 g/kg) 30 min after compound administration. Blood glucose is measured in tail blood 30 min, 60 min, 90 min, 120 min, and 180 min after the glucose challenge. Glucose excursion is quantified by calculating the reactive glucose AUC. The data are presented as mean±SEM. The two-sided unpaired Student t-test is used for statistical comparison of the control group and the active groups.
“Cpd. A” is linagliptin at a dose of 1 mg/kg. Cpd. B is the compound (I.3), i.e. 1-chloro-4-(β-D-glucopyranos-1-yl)-2-[4-((S)-tetrahydrofuran-3-yloxy)-benzyl]-benzene, at a dose of 3 mg/kg. Combination A+B is the combination of linagliptin and the compound (I.3) at the same doses. P-values versus control are indicated by symbols above the bars. […]

[3] = metformin on its own, in the diabetic; cited from earlier work

CC#CCn1c(N2CCC[C@@H](N)C2)nc2c1c(=O)n(Cc1nc(C)c3ccccc3n1)c(=O)n2C [Linagliptin, linagliptin]
degradation of linagliptin [1]: does not show or shows only marginal degradation | reduction of glucose excursion (reactive glucose AUC) in oral glucose tolerance test [2]: 56%

OC[C@H]1O[C@@H](c2ccc(Cl)c(Cc3ccc(O[C@H]4CCOC4)cc3)c2)[C@H](O)[C@@H](O)[C@@H]1O [compound (I.3), 1-chloro-4-(β-D-glucopyranos-1-yl)-2-[4-((S)-tetrahydrofuran-3-yloxy)-benzyl]-benzene]
reduction of glucose excursion (reactive glucose AUC) in oral glucose tolerance test [2]: 51%

CN(C)C(=N)N=C(N)N [metformin]
average improvement in the HbA1c value [3]: 1.0-1.5%
